The subject of the experiment is bicistronic HCV replicon (replicon RNA, GenBank Accession No. AJ242654). Kind of experiment: HCV Replicon Assay. It is filed as cell-based. The note with it: Hepatitis C virus, 72 h, read-out: Replicon IC50.

Each structure is given as a SMILES string. A value given as a limit tells only on which side of the number the result lay.

Regarding `CC(C)NS(=O)(=O)c1cnc(-c2c(C#N)c3ccc(CF)cc3n2C2CCC2)nc1` [compound 315, 2-[3-cyano-1-cyclobutyl-6-(fluoromethyl)-1H-indol-2-yl]-N-(propan-2-yl)pyrimidine-5-sulfonamide], the IC50 is below 500 nM.
The same measure for `C[C@@H](NS(=O)(=O)c1ccc(-c2c(C#N)c3cc(Cl)ccc3n2C2CCC2)nc1)C(F)(F)F` [compound 316, 6-(5-chloro-3-cyano-1-cyclobutyl-1H-indol-2-yl)-N-[(2R)-1,1,1-trifluoropropan-2-yl]pyridine-3-sulfonamide]: below 500 nM; for `C[C@H](NS(=O)(=O)c1ccc(-c2c(C#N)c3ccc(CF)cc3n2C2CCC2)nc1)C1CC1` [compound 317, 6-[3-cyano-1-cyclobutyl-6-(fluoromethyl)-1H-indol-2-yl]-N-[(1S)-1-cyclopropylethyl]pyridine-3-sulfonamide]: below 500 nM; for `N#Cc1c(-c2ccc(S(=O)(=O)NC(CF)CF)cn2)n(C2CCC2)c2cc(CF)ccc12` [compound 318, 6-[3-cyano-1-cyclobutyl-6-(fluoromethyl)-1H-indol-2-yl]-N-(1,3-difluoropropan-2-yl)pyridine-3-sulfonamide]: below 500 nM.
Then `N#Cc1c(-c2ncc(S(=O)(=O)NC(CF)CF)cn2)n(C2CCC2)c2cc(C(F)F)ccc12` [compound 330, 2-[3-cyano-1-cyclobutyl-6-(difluoromethyl)-1H-indol-2-yl]-N-(1,3-difluoropropan-2-yl)pyrimidine-5-sulfonamide], with below 500 nM; and `N#Cc1c(-c2ccc(S(=O)(=O)NC(CF)CF)cn2)n(C2CCC2)c2cc(C3CCC3)ccc12` [compound 342, 6-(3-cyano-1,6-dicyclobutyl-1H-indol-2-yl)-N-(1,3-difluoropropan-2-yl)pyridine-3-sulfonamide], with 500 to 2000 nM; and `C[C@H](NS(=O)(=O)c1ccc(-c2c(C#N)c3ccc(Cl)cc3n2C2CCCC2)nc1)C(F)(F)F` [compound 364, 6-(6-chloro-3-cyano-1-cyclopentyl-1H-indol-2-yl)-N-[(2S)-1,1,1-trifluoropropan-2-yl]pyridine-3-sulfonamide], with below 500 nM.
The same measure for `N#Cc1c(-c2ccc(S(=O)(=O)NC(CF)CF)cn2)n(C2CCC2)c2ccc(C(F)F)cc12` [compound 378, 6-[3-cyano-1-cyclobutyl-5-(difluoromethyl)-1H-indol-2-yl]-N-(1,3-difluoropropan-2-yl)pyridine-3-sulfonamide]: below 500 nM; for `N#Cc1c(-c2ncc(S(=O)(=O)NC(CF)CF)cn2)n(C2CCC2)c2ccc(C(F)F)cc12` [compound 379, 2-[3-cyano-1-cyclobutyl-5-(difluoromethyl)-1H-indol-2-yl]-N-(1,3-difluoropropan-2-yl)pyrimidine-5-sulfonamide]: below 500 nM; for `Cc1cc2c(cc1F)c(C#N)c(-c1ccc(S(=O)(=O)N[C@H](C)C(F)(F)F)cn1)n2C1CCCC1` [compound 409, 6-(3-cyano-1-cyclopentyl-5-fluoro-6-methyl-1H-indol-2-yl)-N-[(2R)-1,1,1-trifluoropropan-2-yl]pyridine-3-sulfonamide]: below 500 nM.
Consider `C[C@H](NS(=O)(=O)c1cnc(-c2c(C#N)c3ccc(Cl)cc3n2CC2CC2)nc1)C(F)(F)F` [compound 415, 2-[6-chloro-3-cyano-1-(cyclopropylmethyl)-1H-indol-2-yl]-N-[(2S)-1,1,1-trifluoropropan-2-yl]pyrimidine-5-sulfonamide], for which the IC50 is below 500 nM.
Then `CC(C)n1c(-c2ncc(S(=O)(=O)N[C@@H](C)C(F)(F)F)cn2)c(C#N)c2cc(Cl)ccc21` [compound 420, 2-[5-chloro-3-cyano-1-(propan-2-yl)-1H-indol-2-yl]-N-[(2S)-1,1,1-trifluoropropan-2-yl]pyrimidine-5-sulfonamide], with 500 to 2000 nM; and `Cc1ccc2c(C#N)c(-c3ccc(S(=O)(=O)N[C@@H](C)C4CC4)cn3)n(C(C)C)c2c1` [compound 425, 6-[3-cyano-6-methyl-1-(propan-2-yl)-1H-indol-2-yl]-N-[(1S)-1-cyclopropylethyl]pyridine-3-sulfonamide], with 500 to 2000 nM.
